# Results reported in patent US20210322331A1, “NANOCAPSULES FOR THE DELIVERY OF CELL MODULATING AGENTS” (CSL BEHRING LLC, priority 2018, published 2021).
# Tests used:
# Assay type in all cases: cell-based
# [1] = system: CCR5; assay: CCR5 staining with 6-TG selection in mPB CD34+ cells; settings: 100 nM of 6TG day 4 to 14, flow at day 14; without 6TG 44.9%
# Procedure: Assay protocols and results for CCR5 staining with 6-TG selection in sh734-KI mPB CD34+ cells (i.e. Mobilized CD34+ cells cultured with TPO/SCF/FLT3/IL3 and Knock-out of CCR5 and knock-in of sh734 in CD34+ cells)
# (§1) Nanocapsules were formulated to contain CRISPR/Cas9/gRNAR targeting CCR5/mi-sh734 expression cassette HDR template CRISPR machinery complex (see methods). Cd34+ cells were thawed and pre-stimulated in x-vivo 10 with 100 ng/mL of TPO/SCF/FLT4/IL3 for overnight. Then 500 ng of Cas9-CCR5-gRNA-3G-mi-sh734 nanocapsules were added into 5×10^4 cells per well and 100 nM of 6TG was added into culture media from day 4 to 14. The flow analysis was carried out at day 14.
# as §1, with “6-TG selection was examined using VCN/InDel data. mPB CD34+ were transfected/transduced as indicated in FIG. 8A Nanocapsules” for “Nanocapsules”, “prestimulated” for “pre-stimulated”, “X-vivo” for “x-vivo”
# [2] = system: CEM cells; assay: Negative selection with MTX or MPA on transduced or transfected CEM cells; settings: for GFP-population of transduced cells (HPRT knockdown): FIG. 10A, CEM experiment; for HPRT knockout population of CEM cells: FIG. 10B
# Procedure: FIGS. 10A and 10B illustrate the effect of negative selection with 300 nM of MTX, 1 uM and 10 uM of MPA on CEM cells transduced with sh7-GFP lentiviral vector or transfected with RNP targeting HPRT1 nanocapsules.
# (§2) Transduced or transfected CEM cells (such as those from Example 6) were cultured with or without MTX from day 0 to day 14. The medium was refreshed every 3 to 4 days. GFP was analyzed on flow machine and InDel % was analyzed by T7E1 assay.
# [3] = system: K562 cells; assay: Negative selection with MTX on transduced or transfected K562 cells; settings: 0.3 uM of MTX
# Procedure: FIGS. 9A and 9B illustrate the effect of negative selection with 300 nM of MTX on K562 cells transduced with sh7-GFP lentiviral vector or transfected with RNP targeting HPRT1 nanocapsules.
# as §2, with “K562” for “CEM”, “5)” for “6)”, “assay. […] FIG. 9B illustrated that the transfected K562 cells were eliminated under treatment with 0.3 uM of MTX at a faster pace as compared with the HPRT-KD population.” for “assay.”
compound,measurement,setting,value
"Nc1nc2nc[nH]c2c(=S)[nH]1 [6TG, 6-thioguanine]",CCR5+ of CD34+ cells with 6TG treatment (no nanocapsule),[1],43.4%
"COc1c(C)c2c(c(O)c1C/C=C(\C)CCC(=O)O)C(=O)OC2 [MPA, mycophenolic acid]",GFP-population of transduced cells (HPRT knockdown),[2]; 1 uM of MPA,decreased
same,GFP-population of transduced cells (HPRT knockdown),[2]; 10 uM of MPA,decreased
same,HPRT knockout population of CEM cells,[2]; 1 uM of MPA,eliminated at a faster pace
same,HPRT knockout population of CEM cells,[2]; 10 uM of MPA,eliminated at a faster pace
"CN(Cc1cnc2nc(N)nc(N)c2n1)c1ccc(C(=O)N[C@@H](CCC(=O)O)C(=O)O)cc1 [MTX, methotrexate]",GFP-population of transduced K562 cells (HPRT knockdown),"[3]; FIG. 9A, day 0 to day 14",decreased
same,transfected (HPRT knockout) K562 cells,"[3]; FIG. 9B, compared with the HPRT-KD population",eliminated
same,GFP-population of transduced cells (HPRT knockdown),[2]; 0.3 uM of MTX,decreased
same,HPRT knockout population of CEM cells,[2]; 0.3 uM of MTX,eliminated at a faster pace
